Key:
[1] = tested on: P. berghei ANKA; assay: Malaria-associated acute lung injury (M-AALI) model; assay type: in vivo, DBA/2 mice; conditions: i.v. twice daily between days 2 and 4 after infection
Source text: The M-AALI model, based on the infection of DBA-2 mice with P. berghei ANKA, is characterized by dyspnea, airway obstruction, hypoxemia, pulmonary exudate and elevated VEGF levels in plasma, followed by death between days 7 and 12 after infection.
Red blood cells infected with green fluorescent protein (GFP)-transgenic P. berghei ANKA and P. berghei ANKA was used to infect mice (see, e.g., Franke-Fayard et al. Mol Biochem Parasitol (2004) 137:23-33). Cryopreserved parasites were passed once through C57BL/6 or DBA-2 mice before being used to infect experimental animals. […] The infected mice were monitored daily for clinical symptoms of experimental cerebral malaria (ECM) including hemi- or paraplegia, head deviation, tendency to roll over on stimulation, ataxia and convulsions, or ALI, including dyspnea. […] Parasitemia was assessed by flow cytometry for mice infected with GFP-expressing P. berghei ANKA, using tail blood, as previously described (see, e.g., Pamplona et al., Nat Med (2007) 13:703-710). Mean parasitemia is expressed as percentage of infected red blood cells. For mice infected with non-GFP P. berghei parasitemia was assessed daily by microscopic counting of Giemsa-stained thin blood smears. Mean parasitemia is expressed as percentage of infected red blood cells. Survival is expressed as percentage. […]

[2] = Brain histology (hematoxylin and eosin) in ECM; assay type: in vivo, C57BL/6 mice; conditions: P. berghei ANKA-infected mice
Experimental: For evaluation of histological features, mice were deeply anesthetized until cessation of breathing when infected control mice presented signs of ECM or ALI. The livers, lungs, and brains were removed and fixed in 10% buffered formalin for 24-72 h. Four-micron sections were cut from paraffin-embedded tissues and stained with hematoxylin and eosin according to standard procedures. Histological analyses were performed on a Leica microscope DM 2500 (Leica Microsystems).

[3] = tested on: P. falciparum 3D7; assay: In vitro replication of P. falciparum 3D7; assay type: cell-based, Plasmodium falciparum; conditions: 48 h
Experimental: The data led the inventors to wonder whether Compound 1 could have a direct anti-parasitic effect on P. berghei ANKA and P. falciparum parasites. To this end, the effect of Compound 1 and the anti-malarial chloroquine (CQ) was monitored on the in vitro replication of P. falciparum 3D7 isolate and P. berghei ANKA for 48 h and 24 h, respectively.

[4] = BBB disruption by Evans blue accumulation in brain parenchyma; assay type: in vivo, C57BL/6 mice; conditions: when control mice showed signs of ECM
[5] = target: T1, Hen Egg White Lysozyme C (Gallus gallus, UniProt P00698); assay: Hen egg white lysozyme (HEWL) assay, reactivity with proteins by LC-MS; assay type: binding; conditions: 10 equiv in H2O, room temperature, 10 minutes and 1 hour
T1 construct: one corresponding to the mass of native lysozyme (14305=calculated mass); from tissue; host or cells: hen egg white
T1 sequence (P00698 19-147): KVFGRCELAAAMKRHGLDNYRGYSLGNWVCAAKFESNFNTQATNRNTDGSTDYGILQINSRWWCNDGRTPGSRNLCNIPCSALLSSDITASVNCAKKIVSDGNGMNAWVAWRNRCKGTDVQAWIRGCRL
Source text: The hen egg white lysozyme (HEWL) assay was used to assess the reactivity of Compound 1 in the presence of proteins (see, e.g., Santos-Silva, T. et al. J Am Chem Soc (2011) 133, 1192-1195). This paper describes the interactions of CORM-3 with plasma proteins. CORM-3 reacts rapidily with proteins, losing chloride ion, glycinate, and one CO ligand. […] It was observed that CORM-3 reacts faster and has a much weaker efficacy than Compound 1 in this ECM treatment.
Liquid chromatography-mass spectrometry (LC-MS) was performed on a Micromass Quattro API instrument (ESI-TOF-MS) coupled to a Waters Alliance 2795 HPLC using a MassPREP On-Line Desalting Cartridge. […]
Hen Egg White Lysozyme C (PDB code 3b61; UniProtKB/Swiss-Prot code P00698). […] Quantitative determination of lysozyme-ligand binding in the solution and gas phases by electrospray ionisation mass spectrometry follows Veros et al., Rapid Commun. […] A 50 μL aliquot was analyzed by LC-MS (calculated average isotopic mass of the egg white lysozyme=14305.1).
Santos-Silva and co-workers previously describe CORM-3's reactivity towards proteins and formation of a Ru(II) dicarbonyl-lysozyme complex (see, e.g., Santos-Silva et al., J. Am. Chem. Soc. (2011) 133:1192-1195). […] 50 μL aliquots were collected and analyzed by LC-MS over the reaction time (10 minutes and 1 hour). […]

[6] = tested on: VEGF; assay: VEGF protein levels in plasma (ELISA), M-AALI model; assay type: in vivo; conditions: infected DBA/2 mice
Experimental: Mouse VEGF in plasma samples was determined using a commercial ELISA kit (R&D Systems) following the manufacturer's instructions. The group classification was only performed by the end of each experiment after determining the cause of death.

C[SH]([C@@H]1OC(CO)[C@H](O)[C@H](O)C1O)[Ru]([Cl])([Cl])([CH]=O)([CH]=O)[CH]=O (stereo partly drawn) [Compound 1, Tricarbonyldichloro(methylthiogalactopyranoside) Ru(II)]
mice that developed M-AALI [1]: None | neuropathologic features in brain sections [2]: less hemorrhages, and the vessels had lower accumulation of pRBC and leukocytes | inhibition of in vitro growth [3]: does not inhibit in vitro growth | BBB disruption [4]: did not show any evidence of BBB disruption | reactivity with HEWL (adduct formation) [5]: forms protein-Ru^II(CO)2 adducts but reacts slower than CORM-3 | VEGF levels in plasma [6]: significantly lower

Source: US9611286B2, “Ruthenium carbon monoxide releasing molecules and uses thereof” (Alfama, Inc., priority 2011, dated 2017)
